From US6737383B1, “Herbicidal oxadiazolidines” (priority 1999, dated 2004)

Key:
[1] = tested on: Green foxtail; assay: Test D green foxtail; format: in vivo; conditions: Preemergence, 0 to 100 scale
Outline: (§1)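 Greenhouse pots, sandy loam, single species per pot. Preemergence tests: soil-surface application ≤1 day after planting. Compound formulated in non-phytotoxic solvent with surfactant. Visual rating 14–21 DAT, scale 0–100.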

[2] = tested on: Johnson grass; assay: Test D Johnson grass; format: in vivo, Sorghum halepense; conditions: Preemergence, 0 to 100 scale
Outline: as §1

[3] = tested on: Spanishneedles; assay: Test D Spanishneedles; format: in vivo, Bidens bipinnata; conditions: Preemergence, 0 to 100 scale
Outline: as §1

[4] = tested on: Green foxtail; assay: Test D green foxtail; format: in vivo
Outline: as §1

[5] = tested on: sandbur; assay: Test D sandbur; format: in vivo, Cenchrus echinatus; conditions: Preemergence, 0 to 100 scale
Outline: as §1

[6] = tested on: dallisgrass; assay: Test D dallisgrass; format: in vivo, Paspalum dilatatum; conditions: Preemergence, 0 to 100 scale
Outline: as §1

[7] = tested on: surinam grass; assay: Test D surinam grass; format: in vivo, Brachiaria decumbens; conditions: Preemergence, 0 to 100 scale
Outline: as §1

[8] = tested on: large crabgrass; assay: Test D large crabgrass; format: in vivo, Digitaria sanguinalis; conditions: Preemergence, 0 to 100 scale
Outline: as §1

[9] = tested on: common ragweed; assay: Test D common ragweed; format: in vivo, Ambrosia elatior; conditions: Preemergence, 0 to 100 scale
Outline: as §1

[10] = tested on: pitted morningglory; assay: Test D pitted morningglory; format: in vivo, Ipomoea lacunosa; conditions: Preemergence, 0 to 100 scale
Outline: as §1

[11] = tested on: itchgrass; assay: Test D itchgrass; format: in vivo, Rottboellia exaltata; conditions: Preemergence, 0 to 100 scale
Outline: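 Scoring used a 0–100 visual injury scale, with 0 meaning no effect and 100 complete control, assessed 14–21 days after application alongside untreated pots. Preemergence treatments went onto sandy loam surfaces of separately potted seeds within a day of sowing.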

[12] = tested on: guineagrass; assay: Test D guineagrass; format: in vivo, Panicum maximum; conditions: Preemergence, 0 to 100 scale
Outline: as §1

[13] = tested on: bermuda-grass; assay: Test D bermudagrass; format: in vivo, Cynodon dactylon; conditions: Preemergence, 0 to 100 scale
Outline: as §1

[14] = tested on: common groundsel; assay: Test D common groundsel; format: in vivo, Senecio vulgaris; conditions: Preemergence, 0 to 100 scale
From the text: Seeds, tubers, or plant parts of Alexandergrass (Brachiaria plantaginea), bermuda-grass (Cynodon dactylon), common pursiane (Portulaca oleracea), common ragweed (Ambrosia elatior), common groundsel (Senecio vulgaris), dallisgrass (Paspalum dilatatum), goosegrass (Eleusine indica), guineagrass (Panicum maximum), itchgrass (Rottboellia exaltata), Johnson grass (Sorghum halepense), large crabgrass (Digitaria sanguinalis), pitted morningglory (Ipomoea lacunosa), purple nutsedge (Cyperus rotundus), sandbur (Cenchrus echinatus), sourgrass (Trichachne insularis), Spanishneedles (Bidens bipinnata), surinam grass (Brachiaria decumbens) and tall mallow (Malva sylvestris) were planted into greenhouse pots of flats containing greenhouse planting medium. Plant species were grown in separate pots or individual compartments. Preemergence applications were made within one day of planting the seed or plant part.
Test chemicals were formulated in a non-phytotoxic solvent mixture which included a surfactant and applied preemergence to the surface of the pot containing seeds in a sandy loam soil. Untreated control pots and treated pots were placed in the greenhouse for growth and visually evaluated for injury 14 to 21 days after herbicide application. Plant response ratings, summarized in Table C, are based on a 0 to 100 scale where 0 is no injury and 100 is complete control. A dash (−) response means no test result.

[15] = tested on: common pursiane; assay: Test D common purslane; format: in vivo, Portulaca oleracea
Outline: as §1

[16] = Rate 16 g/ha, 0 no injury, 100 complete control
[17] = Rate 32 g/ha, 0 no injury, 100 complete control
[18] = Rate 64 g/ha, 0 no injury, 100 complete control
[19] = Rate 125 g/ha, 0 no injury, 100 complete control
[20] = Preemergence; Rate 16 g/ha; 0 to 100 scale, 0 no injury, 100 complete control
[21] = Preemergence; Rate 32 g/ha; 0 to 100 scale, 0 no injury, 100 complete control
[22] = Rate 16 g/ha; Preemergence; 0 to 100 scale, 0 no injury, 100 complete control
[23] = Rate 32 g/ha; Preemergence; 0 to 100 scale, 0 no injury, 100 complete control
[24] = Rate 64 g/ha, Preemergence; 0 to 100 scale, 0 no injury, 100 complete control
[25] = Rate 125 g/ha, Preemergence; 0 to 100 scale, 0 no injury, 100 complete control
[26] = Rate 250 g/ha; Preemergence; 0 to 100 scale
[27] = Rate 500 g/ha, Preemergence; 0 to 100 scale
[28] = Rate 500 g/ha; Preemergence; 0 to 100 scale

Cc1cccc(C)c1-n1c(=O)on(C(=O)N(c2ccccc2)C(C)C)c1=O [Compound 46]
30: Green foxtail plant response rating [4, 24] | Plant response rating, Green foxtail [4, 24] | Plant response rating, Surinam grass ([7]; Rate 500 g/ha) | Plant response rating, Guineagrass [12, 18] | Plant response rating, Guineagrass [12, 19]
10: Spanishneedles plant response rating [3, 19] | Plant response rating, Surinam grass ([7]; Rate 250 g/ha) | Plant response rating, Itchgrass ([11]; Rate 500 g/ha)
0: Plant response rating, Johnsongrass [2, 16] | Plant response rating, Johnsongrass [2, 17] | Plant response rating, Johnsongrass [2, 18] | Plant response rating, Spanishneedles [3, 16] | Plant response rating, Spanishneedles [3, 17] | Spanishneedles plant response rating [3, 18] | Plant response rating, Green foxtail [4, 20] | Plant response rating, Green foxtail [4, 21] | Plant response rating, Green foxtail [4, 22] | Plant response rating, Sandbur [5, 16] | Plant response rating, Sandbur [5, 17] | Sandbur plant response rating [5, 18] | Sandbur plant response rating [5, 19] | Plant response rating, Sandbur ([5]; Rate 250 g/ha) | Plant response rating, Sandbur ([5]; Rate 500 g/ha) | Plant response rating, Surinam grass [7, 16] | Plant response rating, Surinam grass [7, 17] | Surinam grass plant response rating [7, 18] | Surinam grass plant response rating [7, 19] | Plant response rating, Large crabgrass [8, 16] | Plant response rating, C. ragweed [9, 16] | Plant response rating, C. ragweed [9, 17] | Plant response rating, C. ragweed [9, 18] | Plant response rating, C. ragweed [9, 19] | Plant response rating, C. ragweed ([9]; Rate 250 g/ha) | Plant response rating, C. ragweed ([9]; Rate 500 g/ha) | Plant response rating, P. morninglory [10, 16] | Plant response rating, P. morninglory [10, 17] | Plant response rating, P. morninglory [10, 18] | Plant response rating, P. morninglory [10, 19] | Plant response rating, P. morninglory ([10]; Rate 250 g/ha) | Plant response rating, P. morninglory ([10]; Rate 500 g/ha) | Plant response rating, Itchgrass [11, 16] | Plant response rating, Itchgrass [11, 17] | Plant response rating, Itchgrass [11, 18] | Plant response rating, Itchgrass [11, 19] | Plant response rating, Itchgrass ([11]; Rate 250 g/ha) | Plant response rating, Guineagrass [12, 16] | Plant response rating, Guineagrass [12, 17] | Plant response rating, Com. groundsel [14, 16] | Plant response rating, Com. groundsel [14, 17] | Plant response rating, Com. groundsel [14, 18] | Plant response rating, Com. groundsel [14, 19] | Plant response rating, Com. groundsel ([14]; Rate 250 g/ha) | Plant response rating, Com. groundsel ([14]; Rate 500 g/ha) | Plant response rating, C. purslane [15, 22] | Plant response rating, C. purslane [15, 23] | Plant response rating, C. purslane [15, 24] | Plant response rating, C. purslane [15, 25] | Plant response rating, C. purslane [15, 26] | Plant response rating, C. purslane [15, 28]
100: Plant response rating, Green foxtail ([1]; Rate 250 g/ha) | Plant response rating, Green foxtail ([1]; Rate 500 g/ha) | Plant response rating, Green foxtail [4, 26] | Plant response rating, Green foxtail [4, 27] | Plant response rating, Dallisgrass [6, 19] | Plant response rating, Dallisgrass ([6]; Rate 250 g/ha) | Plant response rating, Dallisgrass ([6]; Rate 500 g/ha) | Plant response rating, Large crabgrass ([8]; Rate 250 g/ha) | Plant response rating, Large crabgrass ([8]; Rate 500 g/ha) | Plant response rating, Bermudagrass [13, 19] | Plant response rating, Bermudagrass ([13]; Rate 250 g/ha) | Plant response rating, Bermudagrass ([13]; Rate 500 g/ha)
98: Plant response rating, Large crabgrass [8, 19] | Plant response rating, Bermudagrass [13, 18]
60: Plant response rating, Johnsongrass ([2]; Rate 500 g/ha)
75: Plant response rating, Green foxtail [4, 23]
85: Plant response rating, Guineagrass ([12]; Rate 500 g/ha) | Plant response rating, Bermudagrass [13, 17]
40: Plant response rating, Johnsongrass [2, 19] | Plant response rating, Johnsongrass ([2]; Rate 250 g/ha) | Green foxtail plant response rating [4, 25] | Plant response rating, Green foxtail [4, 25] | Plant response rating, Dallisgrass [6, 17] | Plant response rating, Dallisgrass [6, 18] | Plant response rating, Large crabgrass [8, 18]
20: Plant response rating, Spanishneedles ([3]; Rate 500 g/ha) | Plant response rating, Dallisgrass [6, 16] | Plant response rating, Large crabgrass [8, 17]
65: Plant response rating, Guineagrass ([12]; Rate 250 g/ha) | Plant response rating, Bermudagrass [13, 16]

C=CCn1c(=O)on(C(=O)N(c2ccccc2)C(C)C)c1=O [Compound 93]
50: Plant response rating, Itchgrass [11, 16]
75: Plant response rating, Johnsongrass [2, 19] | Plant response rating, Green foxtail [4, 21] | Plant response rating, Itchgrass [11, 19] | Plant response rating, Guineagrass [12, 17]
40: Plant response rating, Johnsongrass [2, 18]
35: Plant response rating, Com. groundsel [14, 19]
0: Plant response rating, Johnsongrass [2, 16] | Plant response rating, Johnsongrass [2, 17] | Plant response rating, Spanishneedles [3, 16] | Plant response rating, Spanishneedles [3, 17] | Spanishneedles plant response rating [3, 18] | Plant response rating, Green foxtail [4, 23] | Plant response rating, Sandbur [5, 16] | Plant response rating, Sandbur [5, 17] | Plant response rating, Surinam grass [7, 16] | Plant response rating, Surinam grass [7, 17] | Plant response rating, C. ragweed [9, 16] | Plant response rating, C. ragweed [9, 17] | Plant response rating, C. ragweed [9, 18] | Plant response rating, C. ragweed ([9]; Rate 250 g/ha) | Plant response rating, P. morninglory [10, 16] | Plant response rating, P. morninglory [10, 17] | Plant response rating, P. morninglory [10, 18] | Plant response rating, P. morninglory [10, 19] | Plant response rating, P. morninglory ([10]; Rate 250 g/ha) | Plant response rating, Com. groundsel [14, 16] | Plant response rating, Com. groundsel [14, 17] | Plant response rating, Com. groundsel [14, 18] | Plant response rating, Com. groundsel ([14]; Rate 250 g/ha) | Plant response rating, C. purslane [15, 22] | Plant response rating, C. purslane [15, 23] | Plant response rating, C. purslane [15, 24] | Plant response rating, C. purslane [15, 25] | Plant response rating, C. purslane [15, 26] | Plant response rating, C. purslane [15, 28]
20: Plant response rating, P. morninglory ([10]; Rate 500 g/ha)
80: Plant response rating, C. ragweed ([9]; Rate 500 g/ha) | Plant response rating, Bermudagrass [13, 16] | Plant response rating, Bermudagrass [13, 17] | Plant response rating, C. purslane [15, 27]
90: Surinam grass plant response rating [7, 19] | Plant response rating, Large crabgrass [8, 16] | Plant response rating, Itchgrass ([11]; Rate 250 g/ha) | Plant response rating, Bermudagrass [13, 18]
85: Plant response rating, Johnsongrass ([2]; Rate 500 g/ha) | Surinam grass plant response rating [7, 18]
65: Plant response rating, Green foxtail [4, 20] | Plant response rating, Green foxtail [4, 22] | Sandbur plant response rating [5, 18] | Sandbur plant response rating [5, 19] | Plant response rating, Guineagrass [12, 16]
100: Plant response rating, Green foxtail ([1]; Rate 250 g/ha) | Plant response rating, Green foxtail ([1]; Rate 500 g/ha) | Green foxtail plant response rating [4, 24] | Plant response rating, Green foxtail [4, 24] | Green foxtail plant response rating [4, 25] | Plant response rating, Green foxtail [4, 25] | Plant response rating, Green foxtail [4, 26] | Plant response rating, Green foxtail [4, 27] | Plant response rating, Sandbur ([5]; Rate 250 g/ha) | Plant response rating, Sandbur ([5]; Rate 500 g/ha) | Plant response rating, Dallisgrass ([6]; Rate 250 g/ha) | Plant response rating, Dallisgrass ([6]; Rate 500 g/ha) | Plant response rating, Surinam grass ([7]; Rate 500 g/ha) | Plant response rating, Large crabgrass [8, 19] | Plant response rating, Large crabgrass ([8]; Rate 250 g/ha) | Plant response rating, Large crabgrass ([8]; Rate 500 g/ha) | Plant response rating, Itchgrass ([11]; Rate 500 g/ha) | Plant response rating, Guineagrass [12, 18] | Plant response rating, Guineagrass [12, 19] | Plant response rating, Guineagrass ([12]; Rate 250 g/ha) | Plant response rating, Guineagrass ([12]; Rate 500 g/ha) | Plant response rating, Bermudagrass [13, 19] | Plant response rating, Bermudagrass ([13]; Rate 250 g/ha) | Plant response rating, Bermudagrass ([13]; Rate 500 g/ha) | Plant response rating, Com. groundsel ([14]; Rate 500 g/ha)
60: Plant response rating, Dallisgrass [6, 16] | Plant response rating, Itchgrass [11, 17] | Plant response rating, Itchgrass [11, 18]
45: Plant response rating, Spanishneedles ([3]; Rate 500 g/ha)
98: Plant response rating, Dallisgrass [6, 17] | Plant response rating, Dallisgrass [6, 18] | Plant response rating, Dallisgrass [6, 19] | Plant response rating, Surinam grass ([7]; Rate 250 g/ha) | Plant response rating, Large crabgrass [8, 17] | Plant response rating, Large crabgrass [8, 18]
10: Spanishneedles plant response rating [3, 19] | Plant response rating, C. ragweed [9, 19]
95: Plant response rating, Johnsongrass ([2]; Rate 250 g/ha)
